Test results published in patent US20230295200A1 (REGENTS OF THE UNIVERSITY OF MICHIGAN, priority 2022, published 2023).

What was measured:
[1] = biological target: T1, STAT5A (Homo sapiens, UniProt P42229); assay: Fluorescence polarization (FP) binding assay, STAT5A; details: FP competition, 5 nM fluorescein-labeled tracer, 200 nM protein, PBS pH7.4
T1 sequence (P42229 1-794): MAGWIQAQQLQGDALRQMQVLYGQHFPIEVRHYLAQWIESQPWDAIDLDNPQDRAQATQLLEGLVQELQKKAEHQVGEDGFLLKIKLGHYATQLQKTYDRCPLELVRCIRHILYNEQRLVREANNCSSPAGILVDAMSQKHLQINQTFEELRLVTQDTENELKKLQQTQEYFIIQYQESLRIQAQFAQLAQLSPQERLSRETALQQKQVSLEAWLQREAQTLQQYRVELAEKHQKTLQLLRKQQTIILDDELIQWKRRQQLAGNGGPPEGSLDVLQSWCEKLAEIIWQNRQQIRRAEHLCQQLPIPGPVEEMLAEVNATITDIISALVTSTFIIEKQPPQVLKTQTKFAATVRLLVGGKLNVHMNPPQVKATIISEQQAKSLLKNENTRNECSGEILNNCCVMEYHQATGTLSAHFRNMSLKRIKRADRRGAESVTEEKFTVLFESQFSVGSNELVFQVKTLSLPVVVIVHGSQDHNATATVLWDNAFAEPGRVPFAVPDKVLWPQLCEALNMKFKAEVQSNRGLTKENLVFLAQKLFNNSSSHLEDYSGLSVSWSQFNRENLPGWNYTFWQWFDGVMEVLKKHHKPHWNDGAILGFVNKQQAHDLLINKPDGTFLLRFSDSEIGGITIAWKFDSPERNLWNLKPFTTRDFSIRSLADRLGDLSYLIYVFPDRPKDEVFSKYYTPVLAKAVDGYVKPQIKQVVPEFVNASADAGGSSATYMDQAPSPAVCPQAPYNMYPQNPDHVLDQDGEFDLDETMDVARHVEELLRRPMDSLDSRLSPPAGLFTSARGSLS
Summary of the method: (§1)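 Fluorescein-labelled tracer (5 nM) with 200 nM STAT5 and/or STAT6 protein in PBS pH 7.4, 0.01% BGG, 0.01% Tween-20, 2 mM DTT. Mixed 15 min, then equilibrated 1 h at room temperature; read by fluorescence polarization, constants from nonlinear curve fitting.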

[2] = biological target: T2, STAT6 protein (Homo sapiens, UniProt P42226); assay: Fluorescence polarization (FP) binding assay, STAT6; details: FP competition, 5 nM fluorescein-labeled tracer, 200 nM protein, PBS pH7.4; read-out: Binding STAT6
T2 sequence (P42226 1-847): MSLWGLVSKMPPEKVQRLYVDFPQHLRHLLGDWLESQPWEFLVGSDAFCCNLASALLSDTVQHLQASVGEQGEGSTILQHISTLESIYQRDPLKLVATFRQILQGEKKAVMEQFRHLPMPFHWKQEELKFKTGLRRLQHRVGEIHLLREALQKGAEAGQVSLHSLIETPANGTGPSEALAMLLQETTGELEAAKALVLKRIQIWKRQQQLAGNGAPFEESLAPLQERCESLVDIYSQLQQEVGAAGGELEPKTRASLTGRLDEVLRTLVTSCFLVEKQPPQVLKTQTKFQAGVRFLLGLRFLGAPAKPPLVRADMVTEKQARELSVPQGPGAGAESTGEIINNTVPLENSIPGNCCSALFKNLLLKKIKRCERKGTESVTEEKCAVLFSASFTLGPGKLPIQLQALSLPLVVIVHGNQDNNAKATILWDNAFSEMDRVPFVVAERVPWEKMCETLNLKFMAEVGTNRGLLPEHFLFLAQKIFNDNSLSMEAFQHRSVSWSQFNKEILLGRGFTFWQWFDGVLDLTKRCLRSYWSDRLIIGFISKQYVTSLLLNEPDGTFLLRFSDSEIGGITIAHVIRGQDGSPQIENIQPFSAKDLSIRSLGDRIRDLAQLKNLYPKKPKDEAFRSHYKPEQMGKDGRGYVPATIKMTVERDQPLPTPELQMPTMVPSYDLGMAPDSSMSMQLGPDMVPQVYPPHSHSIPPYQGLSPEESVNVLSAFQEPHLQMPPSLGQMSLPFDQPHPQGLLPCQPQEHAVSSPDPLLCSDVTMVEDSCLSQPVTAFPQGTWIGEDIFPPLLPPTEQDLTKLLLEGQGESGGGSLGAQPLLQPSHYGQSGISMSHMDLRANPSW
Summary of the method: as §1

Compound	Ki [1] [µM]	Ki [2] [µM]
CC(=O)N1CC[C@H]2CC[C@@H](C(=O)N3CCOC[C@@H]3c3ccccc3)N2C(=O)[C@@H](NC(=O)c2cc3cc(C(F)(F)P(=O)(O)O)ccc3s2)C1 [Compound 120, ((2-(((5S,8S,10aR)-3-acetyl-6-oxo-8-((S)-3-phenylmorpholine-4-carbonyl)decahydropyrrolo[1,2-a][1,5]diazocin-5-yl)carbamoyl)benzo[b]thiophen-5-yl)difluoromethyl)phosphonic acid]	> 10	1 to 10
CC(=O)N1CC[C@H]2CC[C@@H](C(=O)N3CCOC[C@H]3c3ccccc3)N2C(=O)[C@@H](NC(=O)c2cc3cc(C(F)(F)P(=O)(O)O)ccc3s2)C1 [Compound 121, ((2-(((5S,8S,10aR)-3-acetyl-6-oxo-8-((R)-3-phenylmorpholine-4-carbonyl)decahydropyrrolo[1,2-a][1,5]diazocin-5-yl)carbamoyl)benzo[b]thiophen-5-yl)difluoromethyl)phosphonic acid]	> 10	1 to 10
CC(=O)NC(C)(C)[C@H](NC(=O)c1cc2cc(C(F)(F)P(=O)(O)O)ccc2s1)C(=O)N1CCC[C@H]1C(=O)N1CCO[C@H](c2ccccc2)C1 [Compound 122, ((2-(((S)-3-acetamido-3-methyl-1-oxo-1-((S)-2-((R)-2-phenylmorpholine-4-carbonyl)pyrrolidin-1-yl)butan-2-yl)carbamoyl)benzo[b]thiophen-5-yl)difluoromethyl)phosphonic acid]	> 10	0.1 to 1
CC(C)(C)[C@H](NC(=O)c1cc2cc(C(F)(F)P(=O)(O)O)ccc2s1)C(=O)N1CCC[C@H]1C(=O)N1CCC(C(=O)O)C(c2ccccc2)C1 (stereo partly drawn) [Compound 123, 1-(((S)-2-(5-(difluoro(phosphono)methyl)benzo [b]thiophene-2-carboxamido)-3,3-dimethylbutanoyl)-L-prolyl)-3-phenylpiperidine-4-carboxylic acid]	> 10	1 to 10
CC(C)(C)[C@H](NC(=O)c1cc2cc(C(F)(F)P(=O)(O)O)ccc2s1)C(=O)N1CCC[C@H]1C(=O)N1CCCOC(c2ccccc2)C1 (stereo partly drawn) [Compound 124, ((2-(((2S)-3,3-dimethyl-1-oxo-1-((2S)-2-(2-phenyl-1,4-oxazepane-4-carbonyl)pyrrolidin-1-yl)butan-2-yl)carbamoyl)benzo[b]thiophen-5-yl)difluoromethyl)phosphonic acid]	1 to 10	0.1 to 1
CC(C)(C)[C@H](NC(=O)c1cc2cc(C(F)(F)P(=O)(O)O)ccc2s1)C(=O)N1CCC[C@H]1C(=O)N1CCCCC(c2ccccc2)C1 (stereo partly drawn) [Compound 125, ((2-(((2S)-3,3-dimethyl-1-oxo-1-((2S)-2-(3-phenylazepane-1-carbonyl)pyrrolidin-1-yl)butan-2-yl)carbamoyl)benzo[b]thiophen-5-yl)difluoromethyl)phosphonic acid]	1 to 10	0.1 to 1
CC1COC(c2ccccc2)CN1C(=O)[C@@H]1CCCN1C(=O)[C@@H](NC(=O)c1cc2cc(C(F)(F)P(=O)(O)O)ccc2s1)C(C)(C)C (stereo partly drawn) [Compound 126, ((2-(((2S)-3,3-dimethyl-1-((2S)-2-(5-methyl-2-phenylmorpholine-4-carbonyl)pyrrolidin-1-yl)-1-oxobutan-2-yl)carbamoyl)benzo[b]thiophen-5-yl)difluoromethyl)phosphonic acid]	1 to 10	0.1 to 1
CC(C)(C)[C@H](NC(=O)c1cc2cc(C(F)(F)P(=O)(O)O)ccc2s1)C(=O)N1CCC[C@H]1C(=O)N1CCOC(c2cccs2)C1 (stereo partly drawn) [Compound 127, ((2-(((2S)-3,3-dimethyl-1-oxo-1-((2S)-2-(2-(thiophen-2-yl)morpholine-4-carbonyl)pyrrolidin-1-yl)butan-2-yl)carbamoyl)benzo[b]thiophen-5-yl)difluoromethyl)phosphonic acid]	1 to 10	0.1 to 1
CC(C)(C)[C@H](NC(=O)c1cc2cc(C(F)(F)P(=O)(O)O)ccc2s1)C(=O)N1CCC[C@H]1C(=O)N1CCOC(c2nccs2)C1 (stereo partly drawn) [Compound 128, ((2-(((2S)-3,3-dimethyl-1-oxo-1-((2S)-2-(2-(thiazol-2-yl)morpholine-4-carbonyl)pyrrolidin-1-yl)butan-2-yl)carbamoyl)benzo[b]thiophen-5-yl)difluoromethyl)phosphonic acid]	> 10	1 to 10
CC(C)(C)[C@H](NC(=O)c1cc2cc(C(F)(F)P(=O)(O)O)ccc2s1)C(=O)N1CCC[C@H]1C(=O)N1CCOC(c2cccc3ccccc23)C1 (stereo partly drawn) [Compound 129, ((2-(((2S)-3,3-dimethyl-1-((2S)-2-(2-(naphthalen-1-yl)morpholine-4-carbonyl)pyrrolidin-1-yl)-1-oxobutan-2-yl)carbamoyl)benzo[b]thiophen-5-yl)difluoromethyl)phosphonic acid]	1 to 10	0.1 to 1
CC(C)(C)[C@H](NC(=O)c1cc2cc(C(F)(F)P(=O)(O)O)ccc2s1)C(=O)N1CCC[C@H]1C(=O)N1CCOC(c2cccnc2)C1 (stereo partly drawn) [Compound 130, ((2-(((2S)-3,3-dimethyl-1-oxo-1-((2S)-2-(2-(pyridin-3-yl)morpholine-4-carbonyl)pyrrolidin-1-yl)butan-2-yl)carbamoyl)benzo[b]thiophen-5-yl)difluoromethyl)phosphonic acid]	> 10	0.1 to 1
CC(C)(C)[C@H](NC(=O)c1cc2cc(C(F)(F)P(=O)(O)O)ccc2s1)C(=O)N1CCC[C@H]1C(=O)N1CCOC(c2ccncc2)C1 (stereo partly drawn) [Compound 131, ((2-(((2S)-3,3-dimethyl-1-oxo-1-((2S)-2-(2-(pyridin-4-yl)morpholine-4-carbonyl)pyrrolidin-1-yl)butan-2-yl)carbamoyl)benzo[b]thiophen-5-yl)difluoromethyl)phosphonic acid]	> 10	1 to 10
CC(C)(C)[C@H](NC(=O)c1cc2cc(C(F)(F)P(=O)(O)O)ccc2s1)C(=O)N1CCC[C@H]1C(=O)N1CCSC(c2ccccc2)C1 (stereo partly drawn) [Compound 132, ((2-(((2S)-3,3-dimethyl-1-oxo-1-((2S)-2-(2-phenylthiomorpholine-4-carbonyl)pyrrolidin-1-yl)butan-2-yl)carbamoyl)benzo[b]thiophen-5-yl)difluoromethyl)phosphonic acid]	0.1 to 1	0.1 to 1
CC(C)(C)[C@H](NC(=O)c1cc2cc(C(F)(F)P(=O)(O)O)ccc2s1)C(=O)N1CCC[C@H]1C(=O)N1CCOC(Cc2ccccc2)C1 (stereo partly drawn) [Compound 133, ((2-(((2S)-1-((2S)-2-(2-benzylmorpholine-4-carbonyl)pyrrolidin-1-yl)-3,3-dimethyl-1-oxobutan-2-yl)carbamoyl)benzo[b]thiophen-5-yl)difluoromethyl)phosphonic acid]	> 10	1 to 10
CC(C)(C)[C@H](NC(=O)c1cc2cc(C(F)(F)P(=O)(O)O)ccc2s1)C(=O)N1CCC[C@H]1C(=O)N1CCOC(C2CCCCC2)C1 (stereo partly drawn) [Compound 134, ((2-(((2S)-1-((2S)-2-(2-cyclohexylmorpholine-4-carbonyl)pyrrolidin-1-yl)-3,3-dimethyl-1-oxobutan-2-yl)carbamoyl)benzo[b]thiophen-5-yl)difluoromethyl)phosphonic acid]	> 10	1 to 10
